According to patent US12186318B2, “Pharmaceutical composition for preventing or treating cancer comprising KSP inhibitor and mitosis inhibitor” (KOREA INSTITUTE OF SCIENCE AND TECHNOLOGY, priority 2020, dated 2025):

Experiments:
HeyA8-MDR cancer cells [1] = test: TUNEL assay on tumor tissue of tumor mouse model; format: in vivo, BALB/c nude mouse
Source text: The tumor tissue of the respective groups excised in Example 4-2 above was subjected to a TUNEL assay to identify the level of apoptosis in the tumor tissue (FIG. 4I).

Kif15 protein = test: Kif15 expression at the protein level (western blot) in HeyA8-MDR cells; format: cell-based; conditions: 50 nM siKSP and/or 2000 nM PTX, 48 hours
Experimental: The cells recovered in Example 3-3 above were analyzed by western blotting using an anti-Kif15 antibody (FIG. 2D).

Kif15 mRNA = Kif15 mRNA level in drug-resistant PDX model; format: in vivo, mouse; conditions: relative to control
Experimental: The levels of Kif15 mRNA expressed in tumor tissue of the respective groups excised in Example 4-4-2 above were measured by qRT-PCR as an application method of that of Example 3-3 (FIG. 5E).

drug-resistant PDX model = test: TUNEL assay on tumor-implanted kidney tissue of drug-resistant PDX model; format: in vivo, mouse
Source text: The tumor-implanted kidney tissue of the respective groups excised in Example 4-4-2 above was subjected to a TUNEL assay to identify the level of apoptosis in the tumor-implanted kidney tissue (FIG. 5H).

HeyA8-MDR cancer cells [2] = test: Anti-cancer effect in tumor mouse model; format: in vivo, BALB/c nude mouse; conditions: 26 days after injection
Experimental: First, HeyA8-MDR cancer cells (1×10^8) were injected into the left thigh of a 5-week-old female BALB/c nude mouse, and then left until cancer tissue grew to a volume of about 50 mm3 to prepare 20 tumor mouse xenograft models.
Subsequently, at 26 days after injection of each of the samples, tumor tissue was excised from each tumor mouse model and weighed (FIG. 4B).
In addition, at 26 days after injection of each of the samples, tumor tissue was excised from each tumor mouse model, and tumor growth inhibition (TGI) rate was measured (FIG. 4C).

Kif15 gene = test: Kif15 expression at the gene level (qRT-PCR) in HeyA8-MDR cells; format: cell-based; conditions: 50 nM siKSP and/or 2000 nM PTX, 48 hours
Experimental: Subsequently, total RNA was obtained respectively from the recovered cells using an RNeasy mini kit (Qiagen, US), cDNA was synthesized from the obtained total RNA using a TOPscript cDNA synthesis kit (Enzynomics, Korea), and PCR was performed using a StepOne qRT-PCR system (Thermo Fisher scientific) and primers specific to a Kif15 gene (SEQ ID NOS: 7 and 8) or primers specific to a β-actin gene (SEQ ID NOS: 5 and 6).
Thereafter, the levels of the amplified products obtained from the PCR were measured, and the measured levels were standardized with respect to an expression amount of β-actin, and then relative levels of Kif15 mRNA was calculated (FIG. 2C).

HeyA8-MDR cells = test: Anti-cancer activity, MTT cell viability and Bliss independence; format: cell-based; conditions: single agent, 0 to 200 nM liposome or 0 to 2000 nM paclitaxel, 48 hours
Experimental: The recovered cells were cultured in a fresh medium supplemented with a 10% MTT solution for 3 hours and formazan crystals generated by treatment with a Sorensen's glycine buffer and DMSO was dissolved therein. Thereafter, the absorbance thereof was measured at 570 nm and the cell viability was calculated using the same (FIG. 2G).
The cell viabilities of the cells were compared (FIG. 2H).
In addition, in order to quantitatively analyze a reduction level of the cell viability, the measured absorbance was applied to the following equation to calculate an expected inhibition level of cancer cells, and the obtained expected inhibition level was compared with an observed inhibition level of the cancer cells (FIGS. 2I to 2K). […] Expected inhibition level=FsiKSP-liposome+FPTX−(FsiKSP-liposome×FPTX)
Thereafter, cell viability inhibition levels and expected inhibition levels calculated therefrom were compared with each other (FIG. 2L). […] Expected Inhibition Level=Fa+Fb−(Fa×Fb)

In the case of CC(=O)O[C@H]1C(=O)[C@@]2(C)[C@H]([C@H](OC(=O)c3ccccc3)[C@]3(O)C[C@H](OC(=O)[C@H](O)[C@@H](NC(=O)c4ccccc4)c4ccccc4)C(C)=C1C3(C)C)[C@]1(OC(C)=O)CO[C@@H]1C[C@@H]2O [paclitaxel], the “apoptosis in tumor tissue (TUNEL)” value (HeyA8-MDR cancer cells [1]) is reported as “not induced or induced in a low level”, the “level of the Kif15 protein” value (Kif15 protein) is reported as “decreased” and the “Kif15 mRNA level in tumor-implanted kidney tissue” value (Kif15 mRNA) is reported as “decreased”. For the same molecule, the “apoptosis in tumor-implanted kidney tissue (TUNEL)” value (drug-resistant PDX model) was “not induced or induced in a low level”, the “tumor growth inhibition (TGI) rate” value (HeyA8-MDR cancer cells [2]) was “about 13.1%” and the “expression level of the Kif15 gene” value (Kif15 gene) was “inhibited”. For the same molecule, the “cell viability with increasing concentration” value (HeyA8-MDR cells) was “decreases”.
